Assay results taken from ChEMBL document CHEMBL1201862, “PubChem BioAssay data set” (2004).
Activity calls are given as the source filed them.

Assays:
[1] = viability loss in THP-1 monocytes – THP-1 cells, cytotoxicity control for Vif-APOBEC3G degradation inhibitor project, dose response (AID 1117359); type: functional; settings: THP-1
[2] = molecular target: NAD-dependent protein deacylase sirtuin-5, mitochondrial (Homo sapiens, UniProt Q9NXA8); experiment: sirtuin-5 deacylation blockers, concentration series – biochemical, fluorescence imaging, cherry-pick, set 5, dose response (AID 720591);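 note: desuccinylation of succinyl peptide AMC substrate read as fluorescence after trypsin release; potency of inhibitors that lower fluorescence and may act on trypsin instead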
[3] = viability of uninfected HEp-2 cells – cell-based, HTS, cytotoxicity control for RSV inhibitor project, dose response (AID 2410); type: functional; settings: human respiratory syncytial virus
[4] = molecular target: T1, Heat shock factor protein 1 (Mus musculus, UniProt P38532); experiment: decrease of HSF1-responsive luciferase luminescence – cell-based, NIH3T3, dose retest, confirmation (AID 2382); type: functional;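 note: NIH3T3 fibroblasts with HSF1-driven luciferase reporter stressed by proteasome inhibitor MG132; luminescence from HSF1-driven luciferase expression after 8 hours of MG132 stress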
T1 sequence (P38532 whole entry): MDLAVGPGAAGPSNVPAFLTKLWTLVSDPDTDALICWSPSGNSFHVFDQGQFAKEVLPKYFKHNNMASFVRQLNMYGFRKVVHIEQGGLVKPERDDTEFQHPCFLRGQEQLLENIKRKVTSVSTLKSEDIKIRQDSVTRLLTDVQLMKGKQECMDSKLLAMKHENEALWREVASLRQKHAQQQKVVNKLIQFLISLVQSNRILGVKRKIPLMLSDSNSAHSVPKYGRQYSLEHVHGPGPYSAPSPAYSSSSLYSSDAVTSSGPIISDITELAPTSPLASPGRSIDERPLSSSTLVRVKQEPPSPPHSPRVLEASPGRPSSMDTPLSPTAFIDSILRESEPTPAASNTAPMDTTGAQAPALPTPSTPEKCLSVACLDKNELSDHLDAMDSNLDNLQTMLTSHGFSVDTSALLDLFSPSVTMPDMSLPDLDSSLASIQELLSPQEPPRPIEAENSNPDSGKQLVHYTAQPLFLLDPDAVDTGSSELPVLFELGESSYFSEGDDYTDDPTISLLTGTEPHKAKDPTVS

[5] = molecular target: COUP transcription factor 2 (Homo sapiens, UniProt P24468); experiment: Luminescence-based cell-based high throughput dose response assay to identify inhibitors of COUP-TFII (NR2F2).; type: functional;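 note: HEK293 cells transiently cotransfected with COUP-TFII expression vector and reporter; luciferase reporter luminescence driven by COUP-TFII from the pX2-168 reporter plasmid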
[6] = IC50 of Artemis nuclease activity blockers – biochemical, fluorescence intensity, dose response (AID 720701); type: functional;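 note: Artemis endonuclease enzyme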
[7] = molecular target: T2, Caspase-3 (Homo sapiens, UniProt P42574); type: functional;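 note: Dose-response selectivity test against caspase-3 for candidate inhibitors of sentrin-specific proteases (SENPs)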
T2 sequence (P42574 whole entry): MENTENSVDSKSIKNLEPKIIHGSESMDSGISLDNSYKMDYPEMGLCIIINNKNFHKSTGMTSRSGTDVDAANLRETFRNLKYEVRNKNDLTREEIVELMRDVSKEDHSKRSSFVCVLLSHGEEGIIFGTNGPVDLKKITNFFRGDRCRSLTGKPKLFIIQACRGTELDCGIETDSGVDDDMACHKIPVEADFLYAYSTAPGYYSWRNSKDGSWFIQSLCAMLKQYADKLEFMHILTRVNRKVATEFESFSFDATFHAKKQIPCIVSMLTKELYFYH

[8] = molecular target: T3, Sentrin-specific protease 7 (Homo sapiens, UniProt Q9BQF6); type: functional;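 note: Luminescence-based dose-response confirmation of ultra-high-throughput screening hits, measuring inhibition of SENP7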
T3 sequence (Q9BQF6 whole entry): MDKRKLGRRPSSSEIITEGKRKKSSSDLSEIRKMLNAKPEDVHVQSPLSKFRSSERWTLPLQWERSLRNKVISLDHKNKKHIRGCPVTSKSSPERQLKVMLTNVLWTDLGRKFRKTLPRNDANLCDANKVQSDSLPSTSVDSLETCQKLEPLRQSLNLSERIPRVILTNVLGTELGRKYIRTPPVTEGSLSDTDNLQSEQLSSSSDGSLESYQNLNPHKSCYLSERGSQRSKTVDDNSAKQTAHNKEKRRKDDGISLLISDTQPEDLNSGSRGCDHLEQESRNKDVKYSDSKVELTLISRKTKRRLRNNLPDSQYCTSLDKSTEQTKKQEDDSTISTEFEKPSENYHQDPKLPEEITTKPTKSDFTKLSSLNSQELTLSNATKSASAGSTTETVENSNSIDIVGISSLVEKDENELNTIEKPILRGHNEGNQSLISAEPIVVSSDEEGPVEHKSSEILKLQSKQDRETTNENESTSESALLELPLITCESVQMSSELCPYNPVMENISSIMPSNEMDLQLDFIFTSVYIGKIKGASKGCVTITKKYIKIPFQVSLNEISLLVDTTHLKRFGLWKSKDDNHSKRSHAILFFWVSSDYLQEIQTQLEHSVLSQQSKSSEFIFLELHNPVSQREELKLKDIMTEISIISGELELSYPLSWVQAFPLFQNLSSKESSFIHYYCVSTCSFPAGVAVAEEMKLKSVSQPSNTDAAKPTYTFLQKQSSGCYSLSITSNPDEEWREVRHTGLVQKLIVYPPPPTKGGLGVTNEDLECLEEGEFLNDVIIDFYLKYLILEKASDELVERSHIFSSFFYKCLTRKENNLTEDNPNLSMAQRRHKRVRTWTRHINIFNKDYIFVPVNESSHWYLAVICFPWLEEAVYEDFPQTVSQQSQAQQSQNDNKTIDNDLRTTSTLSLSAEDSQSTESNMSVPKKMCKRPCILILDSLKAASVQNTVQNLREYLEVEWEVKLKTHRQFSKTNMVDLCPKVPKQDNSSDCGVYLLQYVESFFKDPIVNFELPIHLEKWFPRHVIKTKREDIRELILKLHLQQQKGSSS

[9] = molecular target: T4, Sentrin-specific protease 6 (Homo sapiens, UniProt Q9GZR1); type: functional;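 note: Luminescence-based dose-response confirmatory assay of SENP6 inhibition, following up an ultra-high-throughput screen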
T4 sequence (Q9GZR1 whole entry): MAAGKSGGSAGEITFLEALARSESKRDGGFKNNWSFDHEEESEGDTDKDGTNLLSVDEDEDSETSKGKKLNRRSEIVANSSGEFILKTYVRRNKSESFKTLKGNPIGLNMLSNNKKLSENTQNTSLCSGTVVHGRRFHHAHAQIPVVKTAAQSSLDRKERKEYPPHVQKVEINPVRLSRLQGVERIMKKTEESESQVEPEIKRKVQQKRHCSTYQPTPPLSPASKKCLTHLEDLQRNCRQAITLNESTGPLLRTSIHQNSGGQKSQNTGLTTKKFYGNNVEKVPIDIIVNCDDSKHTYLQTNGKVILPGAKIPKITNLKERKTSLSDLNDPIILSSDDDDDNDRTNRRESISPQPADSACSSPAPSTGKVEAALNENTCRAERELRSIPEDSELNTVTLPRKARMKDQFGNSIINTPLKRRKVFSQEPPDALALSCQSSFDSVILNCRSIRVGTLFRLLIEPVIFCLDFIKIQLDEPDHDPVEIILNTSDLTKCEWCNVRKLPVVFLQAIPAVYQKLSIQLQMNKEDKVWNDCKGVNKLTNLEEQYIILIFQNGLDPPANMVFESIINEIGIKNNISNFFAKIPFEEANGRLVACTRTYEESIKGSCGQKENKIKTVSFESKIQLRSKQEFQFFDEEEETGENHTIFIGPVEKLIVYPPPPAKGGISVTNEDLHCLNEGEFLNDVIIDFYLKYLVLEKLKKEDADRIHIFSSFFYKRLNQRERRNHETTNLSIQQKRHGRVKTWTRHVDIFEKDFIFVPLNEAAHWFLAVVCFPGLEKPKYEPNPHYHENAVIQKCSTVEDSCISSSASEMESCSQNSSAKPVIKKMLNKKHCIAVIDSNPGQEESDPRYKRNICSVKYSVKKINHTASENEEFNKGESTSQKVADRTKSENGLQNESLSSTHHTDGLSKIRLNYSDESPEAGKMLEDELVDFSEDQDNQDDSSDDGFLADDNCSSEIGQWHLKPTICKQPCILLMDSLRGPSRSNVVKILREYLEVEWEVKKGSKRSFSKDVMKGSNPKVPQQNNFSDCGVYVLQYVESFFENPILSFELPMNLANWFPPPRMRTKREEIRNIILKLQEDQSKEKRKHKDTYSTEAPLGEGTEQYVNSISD

[10] = molecular target: T5, Sentrin-specific protease 8 (Homo sapiens, UniProt Q96LD8); type: functional;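 note: luminescence read-out of SENP8 inhibition, dose-response confirmation following an ultra-high-throughput screen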
T5 sequence (Q96LD8 whole entry): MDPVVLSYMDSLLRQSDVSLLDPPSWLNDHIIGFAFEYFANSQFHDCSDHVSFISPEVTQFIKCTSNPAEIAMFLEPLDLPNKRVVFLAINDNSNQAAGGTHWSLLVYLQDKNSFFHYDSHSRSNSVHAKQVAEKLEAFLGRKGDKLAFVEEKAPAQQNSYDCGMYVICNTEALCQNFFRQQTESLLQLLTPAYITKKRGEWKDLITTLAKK

[11] = molecular target: T6, Oxysterols receptor LXR-beta (Homo sapiens, UniProt P55055); type: functional, cell-based;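 note: Cell-based luminescence dose-response assay of agonist activity at LXR, run as a confirmatory counterscreen to a daf-12 agonist screen; HEK293 cells with Gal4-LXR fusion and GAL4-driven luciferase reporter; agonist potency from rising luciferase signal of a Gal4-LXR reporter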
T6 sequence (P55055 whole entry): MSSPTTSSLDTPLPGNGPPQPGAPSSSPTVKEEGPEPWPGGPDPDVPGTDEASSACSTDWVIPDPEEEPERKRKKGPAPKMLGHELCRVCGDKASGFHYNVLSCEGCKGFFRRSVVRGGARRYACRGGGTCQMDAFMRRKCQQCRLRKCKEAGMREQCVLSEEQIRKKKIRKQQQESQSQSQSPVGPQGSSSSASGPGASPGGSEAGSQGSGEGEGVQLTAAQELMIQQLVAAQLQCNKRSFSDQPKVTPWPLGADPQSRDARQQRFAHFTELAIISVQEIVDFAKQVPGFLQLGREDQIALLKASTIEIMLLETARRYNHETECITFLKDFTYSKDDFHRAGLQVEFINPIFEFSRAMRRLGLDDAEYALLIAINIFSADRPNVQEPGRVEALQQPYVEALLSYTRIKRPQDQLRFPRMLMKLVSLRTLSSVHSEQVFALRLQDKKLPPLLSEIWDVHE

[12] = cells
[13] = CellTiter-Glo luminescence survival assay, SW480 colon tumor line, concentration-response curve, half-maximal inhibitory concentration (AID 1117338); type: functional
[14] = RKO cell viability reduction, dose response, CellTiter-Glo luminescence (AID 1117322); type: functional
[15] = cytotoxicity toward HCT116 cells – cell-based, CellTiter-Glo luminescence, IC50, dose response (AID 1117332); type: functional; settings: HCT-116
[16] = SNU-C1 cell viability reduction, dose response, CellTiter-Glo luminescence (AID 1117323); type: functional, cell-based
[17] = cytotoxicity toward Colo320 cells – cell-based, CellTiter-Glo luminescence, IC50, dose response (AID 1117334); type: functional; settings: COLO 320
[18] = cytotoxicity toward HT-29 cells – cell-based, CellTiter-Glo luminescence, IC50, dose response (AID 1117330); type: functional
[19] = Reduced DLD-1 viability, concentration-response, CellTiter-Glo luminescence (AID 1117352); type: functional
[20] = HCT116 cell viability decrease, GSK3B pretreatment – CellTiter-Glo, IC50, dose response (AID 1117339); type: functional; settings: HCT-116
[21] = reduced cellular PGC1a acetyl-lysine signal – cell-based, cherry-picked samples, dose response (AID 720514); type: functional;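 note: potency may reflect raised or lowered acetylation signal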
[22] = Dd2 parasite growth inhibition in erythrocytes – SYBR Green, dry powder samples, set 9, dose response (AID 1159568); type: functional, cell-based
[23] = molecular target: G-protein coupled receptor 183 (Homo sapiens, UniProt P32249); experiment: SAR confirmation of small molecule antagonists of the EBI2 receptor via a luminescent beta-arrestin assa.; type: functional
[24] = growth inhibition of yeast DHODH-expressing 3D7 parasites – SYBR Green, dry powder samples, dose response (AID 1159570); type: functional, cell-based;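 note: parasite growth measured after 72 hours of compound exposure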
[25] = toxicity to human HepG2 hepatoma cells – cell-based, plate reader, dry powder samples, cytotoxicity control, dose response (AID 1159569); type: functional;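 note: inhibitor potency with signal falling toward the positive control level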
[26] = Dd2 malaria parasite growth inhibition potency – SYBR Green, dry powder samples, dose response (AID 1159566); type: functional, cell-based;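 note: potency for growth inhibition with lower SYBR green DNA signal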
[27] = growth inhibition of PfATP4-mutant resistant parasites – NITD609-resistant line, SYBR Green, dry powder, dose response (AID 1159571); type: functional, cell-based;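 note: parasites synchronized at ring stage by sorbitol before testing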

Chain of NAD-dependent protein deacylase sirtuin-5, mitochondrial (Q9NXA8 whole entry): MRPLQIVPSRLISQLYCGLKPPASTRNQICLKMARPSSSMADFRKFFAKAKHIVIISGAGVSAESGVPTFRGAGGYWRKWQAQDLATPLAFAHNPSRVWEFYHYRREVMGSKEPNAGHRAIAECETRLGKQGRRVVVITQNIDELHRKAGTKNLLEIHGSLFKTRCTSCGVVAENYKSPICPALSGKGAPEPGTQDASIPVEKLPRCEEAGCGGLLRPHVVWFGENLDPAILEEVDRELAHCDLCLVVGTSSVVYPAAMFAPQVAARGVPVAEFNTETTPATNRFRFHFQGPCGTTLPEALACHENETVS
Chain of G-protein coupled receptor 183 (P32249 whole entry): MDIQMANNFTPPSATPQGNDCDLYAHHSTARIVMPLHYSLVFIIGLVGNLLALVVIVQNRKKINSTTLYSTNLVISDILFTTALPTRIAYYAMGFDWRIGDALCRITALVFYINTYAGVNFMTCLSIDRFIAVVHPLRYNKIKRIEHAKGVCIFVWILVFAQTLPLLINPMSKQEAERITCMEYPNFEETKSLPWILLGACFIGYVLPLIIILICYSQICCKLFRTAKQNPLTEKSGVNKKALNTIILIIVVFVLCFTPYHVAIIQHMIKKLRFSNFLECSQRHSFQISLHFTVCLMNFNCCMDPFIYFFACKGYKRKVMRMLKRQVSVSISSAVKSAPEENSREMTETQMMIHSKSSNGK
Chain of COUP transcription factor 2 (P24468 whole entry): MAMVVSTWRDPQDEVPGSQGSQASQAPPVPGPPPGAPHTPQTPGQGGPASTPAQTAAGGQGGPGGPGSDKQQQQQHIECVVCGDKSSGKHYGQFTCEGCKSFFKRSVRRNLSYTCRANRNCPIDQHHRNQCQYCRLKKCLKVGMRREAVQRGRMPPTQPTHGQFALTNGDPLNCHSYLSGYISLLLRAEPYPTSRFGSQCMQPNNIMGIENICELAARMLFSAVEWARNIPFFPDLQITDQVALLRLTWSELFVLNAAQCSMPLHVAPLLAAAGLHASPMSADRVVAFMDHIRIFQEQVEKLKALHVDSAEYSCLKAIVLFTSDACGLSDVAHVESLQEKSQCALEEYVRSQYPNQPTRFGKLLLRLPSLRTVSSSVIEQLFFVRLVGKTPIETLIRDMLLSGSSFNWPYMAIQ

## COc1ccc(-c2[nH]c3ccccc3c2SCCN)cc1
[1]
  CC50: 28.3 µM (active)

## O=C(COc1ccc2c(c1)OCO2)Nc1ccc(Cl)cn1
[2]
  AC50: > 30 µM (inactive)

## Cc1nc2c(-c3ccccc3)cnn2c(N)c1-c1ccccc1
[3]
  CC50: 17.2 µM (active)
[4]
  EC50: < 0.16 µM (active)
[5]
  IC50: > 9.5 µM (active)

## COc1ccc(C2CC(c3ccc(Cl)cc3)Nc3nc(NC(=O)c4ccco4)nn32)cc1 (stereo not drawn)
[6]
  IC50: 11.8 µM (active)

## Nc1nc(-c2ccccc2)nc2sc3c(c12)CCCC3
[7]
  IC50: 19 µM (active)
[8]
  IC50: 3.08 µM (active)
[9]
  IC50: 10 µM (active)
[10]
  IC50: 5.99 µM (active)
[11]
  EC50: > 67.5 µM (inactive)
[12]
  EC50: > 67.5 µM (inactive)

## CC(C)N(C(=O)[C@H]1C[C@H](CC(=O)NCc2cccc(C(F)(F)F)c2)C(=O)N2CCc3c([nH]c4cc(CCC(=O)N(C)C)ccc34)[C@]12C)C(C)C
[2]
  AC50: > 30 µM (inactive)

## CCOC(=O)[C@H](CCc1ccccc1)N[C@@H](C)C(=O)N1C(=O)N(C)C[C@H]1C(=O)O
[13]
  IC50: > 20 µM (inactive)
[14]
  IC50: > 20 µM (inactive)
[15]
  IC50: > 20 µM (inactive)
[16]
  IC50: > 20 µM (inactive)
[17]
  IC50: > 20 µM (inactive)
[18]
  IC50: > 20 µM (inactive)
[19]
  IC50: > 20 µM (inactive)
[20]
  IC50: > 20 µM (inactive)

## N#C[C@H]1[C@H](c2ccc(C#CC3CCCC3)cc2)[C@H](CO)N1C(=O)Cc1ccccn1
[21]
  AC50: 20.4 µM (active)

## COc1ccc(S(=O)(=O)N(C)C[C@H]2Oc3ccc(NC(=O)Cc4cn(C)c5ccccc45)cc3C(=O)N([C@H](C)CO)C[C@@H]2C)cc1
[22]
  AC50: 0.39 µM (active)

## O=C(/C=C/c1ccc(Br)cc1)N1CCN(C(=O)c2ccccc2)CC1
[23]
  IC50: 0.00062 µM (active)

## Cc1ccc(CN2CCN(C(=O)/C=C/c3ccc(Br)cc3)CC2)cc1
[23]
  IC50: 0.00177 µM (active)

## COc1cccc(CN2[C@H](CO)[C@@H](c3ccccc3)C23CN(Cc2ccccc2OC)C3)c1
[24]
  AC50: 0.999 µM (active)
[25]
  AC50: 23.9 µM (active)
[22]
  AC50: 1.31 µM (active)
[26]
  AC50: 0.47 µM (active)
[27]
  AC50: 0.875 µM (active)

## CSc1ccc(/C=C2/C(C)=C(CC(=O)O)c3cc(F)ccc32)cc1 [SULINDAC SULFIDE]
[13]
  IC50: 20 µM (inactive)
[14]
  IC50: > 20 µM (inactive)
[15]
  IC50: > 20 µM (inactive)
[16]
  IC50: 12 µM (inactive)
[17]
  IC50: > 20 µM (inactive)
[18]
  IC50: > 20 µM (inactive)
[19]
  IC50: > 20 µM (inactive)
[20]
  IC50: > 20 µM (inactive)
